Assay results taken from patent US7863449B2, “Modulators of muscarinic receptors” (Vertex Pharmaceuticals Incorporated, priority 2004, dated 2011).
Counter-ions that a name gives are not always drawn.

How the values were obtained:
[1] = biological target: T1, M1 muscarinic receptor (Homo sapiens, UniProt P11229); test: Functional mobilization of intracellular calcium (FLIPR), M1-CHO cells; format: cell-based; details: for Emax: 100% efficacy is the maximum response obtained using Carbachol as a control; for M1 Activity: M1-CHO cells, FLIPR calcium mobilization
T1 construct: expressed in transfected cells; host or cells: CHO (M1-CHO)
T1 sequence (P11229 1-460): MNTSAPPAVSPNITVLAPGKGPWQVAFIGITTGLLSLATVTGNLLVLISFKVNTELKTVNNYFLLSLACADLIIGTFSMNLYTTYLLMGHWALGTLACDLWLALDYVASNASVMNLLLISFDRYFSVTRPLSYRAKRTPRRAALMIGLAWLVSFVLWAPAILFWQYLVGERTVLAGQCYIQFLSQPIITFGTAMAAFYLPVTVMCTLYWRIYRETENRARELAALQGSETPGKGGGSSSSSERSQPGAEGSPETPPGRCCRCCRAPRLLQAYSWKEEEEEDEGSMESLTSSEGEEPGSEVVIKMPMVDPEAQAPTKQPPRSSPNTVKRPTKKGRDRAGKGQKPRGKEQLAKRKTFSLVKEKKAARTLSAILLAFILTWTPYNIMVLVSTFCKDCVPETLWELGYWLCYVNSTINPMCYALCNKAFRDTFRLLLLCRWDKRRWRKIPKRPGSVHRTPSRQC
Method in brief: (§1)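 CHO cells expressing M1 or M4, loaded with Fluo-3 AM or Calcium 3 dye with 1 mM probenecid, 0.5% DMSO final. Agonist mode: compound added directly; antagonist mode: 15 min pre-incubation (or co-application) before carbachol at EC80. Fluorescence recorded 60 s on FLIPR.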

[2] = biological target: T2, M4 muscarinic receptor (Homo sapiens, UniProt P08173); test: Functional mobilization of intracellular calcium (FLIPR), M4-CHO cells; format: cell-based; details: for Emax: 100% efficacy is the maximum response obtained using Carbachol as a control; for M4 Activity: M4-CHO cells, FLIPR calcium mobilization
T2 construct: expressed in transfected cells; host or cells: CHO (M4-CHO)
T2 sequence (P08173 1-479): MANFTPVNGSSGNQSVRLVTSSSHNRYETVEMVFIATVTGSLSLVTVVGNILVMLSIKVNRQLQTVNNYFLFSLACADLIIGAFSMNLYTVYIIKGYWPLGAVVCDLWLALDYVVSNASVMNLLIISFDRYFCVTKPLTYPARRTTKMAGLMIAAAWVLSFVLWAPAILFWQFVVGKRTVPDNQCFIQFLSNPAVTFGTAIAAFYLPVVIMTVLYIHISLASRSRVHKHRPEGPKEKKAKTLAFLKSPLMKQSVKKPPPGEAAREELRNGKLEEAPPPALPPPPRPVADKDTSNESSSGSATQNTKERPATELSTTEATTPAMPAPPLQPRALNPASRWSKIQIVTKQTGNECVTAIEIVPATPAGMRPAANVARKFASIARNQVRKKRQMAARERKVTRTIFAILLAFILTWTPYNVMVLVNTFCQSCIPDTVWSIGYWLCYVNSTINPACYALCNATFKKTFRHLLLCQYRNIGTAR
Method in brief: as §1

| SMILES | Emax [1] [%] | M1 Activity [1] | Emax [2] [%] | M4 Activity [2] |
| --- | --- | --- | --- | --- |
| CCCOC(=O)N1CCC(N2CCC3(CC2)CN(C(C)=O)Cc2ccccc23)CC1 [compound 129, Propyl 4-(2-acetyl-2,3-dihydro-1H-spiro[isoquinoline-4,4′-piperidine]-1′-yl)piperidine-1-carboxylate hydrochloride] | 25 to 100 | +++ (activity was measured to be less than 1.0 μM) | 25 to 100 | +++ (activity was measured to be less than 1.0 μM) |
| CC(=O)N1Cc2ccccc2C2(CCN(Cc3ccc(F)cc3)CC2)C1 [compound 115] | < 25 | + (activity was measured to be greater than 5.0 μM) | < 25 | + (activity was measured to be greater than 5.0 μM) |
| CCOC(=O)N1C2CCC1CC(N1CCC3(CC1)CN(C(=O)c1snnc1C)Cc1ccccc13)C2 (stereo not shown) [compound 179] | 25 to 100 | +++ (activity was measured to be less than 1.0 μM) | 25 to 100 | +++ (activity was measured to be less than 1.0 μM) |
| CCOC(=O)N1CCC(CN2CCC3(CC2)CN(S(=O)(=O)N(C)C)Cc2ccccc23)CC1 [compound 356] | 25 to 100 | +++ (activity was measured to be less than 1.0 μM) | 25 to 100 | +++ (activity was measured to be less than 1.0 μM) |
| CCOC(=O)N1CCC(N2CCC3(CC2)CN(C(=O)N(CC)CC)Cc2ccccc23)CC1 [compound 242] | 25 to 100 | +++ (activity was measured to be less than 1.0 μM) | < 25 | + (activity was measured to be greater than 5.0 μM) |
| CCOC(=O)N1CCC(N2CCC3(CC2)CN(C2CCCCCC2)Cc2ccccc23)CC1 [compound 172, Ethyl 4-(2-cycloheptyl-2,3-dihydro-1H-spiro[isoquinoline-4,4-piperidine]-1′-yl)piperidine-1-carboxylate] | 25 to 100 |  | 25 to 100 |  |
| COC(=O)N1C2CCC1CC(N1CCC3(CC1)CN(C(C)=O)Cc1ccccc13)C2 (stereo not shown) [compound 140] | 25 to 100 | +++ (activity was measured to be less than 1.0 μM) | 25 to 100 | +++ (activity was measured to be less than 1.0 μM) |
| CC(=O)N1Cc2ccccc2C2(CCN(CC3CCN(C(=O)OC4CCCC4)CC3)CC2)C1 [compound 252] | < 25 | + (activity was measured to be greater than 5.0 μM) | < 25 | + (activity was measured to be greater than 5.0 μM) |
| CCOC(=O)N1C2CCC1CC(N1CCC3(CC1)CN(C(=O)N1CCCCC1)Cc1ccccc13)C2 (stereo not shown) [compound 344] | 25 to 100 | +++ (activity was measured to be less than 1.0 μM) | 25 to 100 | +++ (activity was measured to be less than 1.0 μM) |
| COCCOC(=O)N1CCC(N2CCC3(CC2)CN(C(C)=O)Cc2ccccc23)CC1 [compound 158] | 25 to 100 | +++ (activity was measured to be less than 1.0 μM) | 25 to 100 | +++ (activity was measured to be less than 1.0 μM) |
| CCON=C1CCC(N2CCC3(CC2)CN(C(C)=O)Cc2ccccc23)CC1 (stereo not shown) [compound 196, 1-(1′-(4-(ethoxyimino)cyclohexyl)-1H-spiro[isoquinoline-4,4′-piperidine]-2(3H)-yl)ethanone] | 25 to 100 | +++ (activity was measured to be less than 1.0 μM) | 25 to 100 | +++ (activity was measured to be less than 1.0 μM) |
| CCOC(=O)N1CCC(N2CCC3(CC2)CN(S(=O)(=O)N(C)C)Cc2ccccc23)CC1 [compound 176] | 25 to 100 | +++ (activity was measured to be less than 1.0 μM) | 25 to 100 | +++ (activity was measured to be less than 1.0 μM) |
| CCOC(=O)N1CCC(N2CCC3(CC2)OC(=O)c2cc(Cl)ccc23)CC1 [compound 230] | 25 to 100 | +++ (activity was measured to be less than 1.0 μM) | 25 to 100 | ++ (activity was measured to be from 1.0 μM to 5.0 μM) |
| COC(=O)c1ccc(CN2CCC3(CC2)CN(C(C)=O)Cc2ccccc23)cc1 [compound 276] | 25 to 100 | ++ (activity was measured to be from 1.0 μM to 5.0 μM) | 25 to 100 | ++ (activity was measured to be from 1.0 μM to 5.0 μM) |
| CCOC(=O)N1C2CCC1CC(N1CCC3(CC1)CN(S(=O)(=O)c1sc(NC(C)=O)nc1C)Cc1ccccc13)C2 (stereo not shown) [compound 200] | 25 to 100 | +++ (activity was measured to be less than 1.0 μM) | 25 to 100 | +++ (activity was measured to be less than 1.0 μM) |
| CCOC(=O)N1C2CCC1CC(N1CCC3(CC1)CN(C(=O)CC(F)(F)F)Cc1ccccc13)C2 (stereo not shown) [compound 126] | 25 to 100 | +++ (activity was measured to be less than 1.0 μM) | 25 to 100 | +++ (activity was measured to be less than 1.0 μM) |
| CC(C)OC(=O)N1Cc2ccccc2C2(CCN(C3CC4CCC(C3)N4C(=O)O[C@@H]3CCOC3)CC2)C1 (stereo partly shown) [compound 195] | 25 to 100 | +++ (activity was measured to be less than 1.0 μM) | 25 to 100 | +++ (activity was measured to be less than 1.0 μM) |
| Cc1ccc2c(c1)C1(CCN(CC3CCOCC3)CC1)OC2=O [compound 41] | 25 to 100 | + (activity was measured to be greater than 5.0 μM) | < 25 | + (activity was measured to be greater than 5.0 μM) |
| CCOc1ccc(CN2CCC3(CC2)CN(C(C)=O)Cc2ccccc23)cc1 [compound 137] | < 25 | + (activity was measured to be greater than 5.0 μM) | < 25 | + (activity was measured to be greater than 5.0 μM) |
| CCOC(=O)N1C2CCC1CC(N1CCC3(CC1)CN(C(=O)c1sc(C)nc1C)Cc1ccccc13)C2 (stereo not shown) [compound 203] | 25 to 100 | +++ (activity was measured to be less than 1.0 μM) | 25 to 100 | +++ (activity was measured to be less than 1.0 μM) |
| O=C1NC2(CCN(CCC3CCSCC3)CC2)c2ccccc21 [compound 134] | < 25 | + (activity was measured to be greater than 5.0 μM) | < 25 | + (activity was measured to be greater than 5.0 μM) |
| CCOC(=O)C1CCC(N2CCC3(CC2)CN(C(C)=O)Cc2ccccc23)CC1 (stereo not shown) [compound 68] | 25 to 100 | +++ (activity was measured to be less than 1.0 μM) | 25 to 100 | +++ (activity was measured to be less than 1.0 μM) |
| CC(=O)N1Cc2ccccc2C2(CCN(Cc3ccccc3F)CC2)C1 [compound 199] | < 25 | + (activity was measured to be greater than 5.0 μM) | 25 to 100 | + (activity was measured to be greater than 5.0 μM) |
| CCOC(=O)N1CCC(CN2CCC3(CC2)CN(C(=O)C2CCC2)Cc2ccccc23)CC1 [compound 284] | 25 to 100 | +++ (activity was measured to be less than 1.0 μM) | 25 to 100 | +++ (activity was measured to be less than 1.0 μM) |
| O=C(OC1CCC1)N1Cc2ccccc2C2(CCN(C3CC4CCC(C3)N4C(=O)O[C@H]3CCOC3)CC2)C1 (stereo partly shown) [compound 95] | 25 to 100 | +++ (activity was measured to be less than 1.0 μM) | 25 to 100 | +++ (activity was measured to be less than 1.0 μM) |
| CC(=O)N1Cc2ccccc2C2(CCN(Cc3cccc(C)n3)CC2)C1 [compound 334] | < 25 | + (activity was measured to be greater than 5.0 μM) | < 25 | + (activity was measured to be greater than 5.0 μM) |
| COCCOC(=O)N1C2CCC1CC(N1CCC3(CC1)CN(C(C)=O)Cc1ccccc13)C2 (stereo not shown) [compound 90] | 25 to 100 | +++ (activity was measured to be less than 1.0 μM) | 25 to 100 | +++ (activity was measured to be less than 1.0 μM) |
